Patent US9737610B2 (priority 2010, dated 2017)
Entries after “also recorded” stand apart in the source; their conditions may differ.

Legend:
[1] = Dog pharmacokinetics of API, amorphous and solid dispersion capsules, cross-over; parameters: species or system male beagle dogs; conditions: male, beagle, in vivo, po, 2200 mg
Description: Presented herein are dog pharmacokinetics (PK) studies comparing various forms of rifaximin. […] In the SD dosage form, the polymer used was HPMC-AS at a drug to polymer ratio of 50:50. The formulation also comprised pluronic F127 and crosscarmellose sodium (see Example 4). […] Blood was collected at timed intervals for 24 h after dosage administration, and plasma was harvested for LC-MS/MS analysis.

[2] = Physical stability assessment in 0.1N HCl at 37° C. (PLM); format: physicochemical
Description: For the assessment of physical stability for samples in a 0.1N HCl solution maintained at 37° C., observations were made and microscopy images were acquired using polarized light at different time points including 0, 6 and 24 hrs, as summarized in Table 6. Based on the absence of birefringent particles when samples were observed by PLM, dispersions prepared with HPMC-AS HG and HPMC-AS MG display the highest physical stability under this particular stress condition.

[3] = Physical stability assessment at 40° C./75% RH for 7 d (PLM, mDSC); format: physicochemical; conditions: after 40° C./75% RH for 7 d
Description: Each of the samples remained as irregular aggregates without birefringence/extinctions after stressed at 40° C./75% RH condition for 7 days. […] All of samples display a single apparent Tg at approximately 148° C.

[4] = Physical stability assessment at 60° C./dry for 7 d (PLM); format: physicochemical; conditions: after 60° C./dry for 7 d
Source text: Each of the samples remained as irregular aggregates without birefringence/extinctions after stressed at this condition for 7 days.

in vivo = conditions: dog, po, 2200 mg

Row | AUCINF_obs, mean [1] | AUC_0-24, mean [1] | AUClast, mean [1] | Cmax, mean [1] | half-life ([1]; Half-life, geometric mean) | Tmax ([1]; Tmax, median) | PLM results ([2]; 24 hrs) | time at which crystallization (birefringence/extinctions) was observed ([2]; PLM) | PLM results ([2]; time 0) | PLM results [3] | PLM results [4] | Half-life, geometric mean [1] | Tmax [1] | mean exposure (AUCinf) as compared with API [1] | AUC (in vivo) | AUC(0-inf) (in vivo) | Cmax (in vivo) | Tmax (in vivo) | Compound | PLM results ([2]; 6 hrs)
1 | 104 ng·h/mL | 82 ng·h/mL | 81 ng·h/mL | 44.93 ng/mL | 6.98 h | 1 h |  |  |  |  |  |  |  |  |  |  |  |  | CO[C@H]1/C=C/O[C@@]2(C)Oc3c(C)c(O)c4c(O)c(c5c(nc6cc(C)ccn65)c4c3C2=O)NC(=O)/C(C)=C\C=C\[C@H](C)[C@H](O)[C@@H](C)[C@@H](O)[C@@H](C)[C@H](OC(C)=O)[C@@H]1C [API, Rifaximin] | 
2 |  |  |  |  |  |  | agg., no B/E + a few B/E particles | 6 h | agg., irr., no B/E | agg., irr., no B/E | agg., irr., no B/E |  |  |  |  |  |  |  | CO[C@H]1/C=C/O[C@@]2(C)Oc3c(C)c(O)c4c(O)c(c5c(nc6cc(C)ccn65)c4c3C2=O)NC(=O)/C(C)=C\C=C\[C@H](C)[C@H](O)[C@@H](C)[C@@H](O)[C@@H](C)[C@H](OC(C)=O)[C@@H]1C [(100:0) Rifaximin-only, Rifaximin] | clear view of B/E particles; also recorded: agg., no B/E + a few B/E particles
3 | 4027 ng·h/mL | 3908 ng·h/mL | 3908 ng·h/mL |  |  |  |  |  |  |  |  | 5.88 h | 1 h | ~40 fold | 3910 ng·h/mL | 4030 ng·h/mL | 1390 ng/mL | 2 h | CO[C@H]1/C=C/O[C@@]2(C)Oc3c(C)c(O)c4c(O)c(c5c(nc6cc(C)ccn65)c4c3C2=O)NC(=O)/C(C)=C\C=C\[C@H](C)[C@H](O)[C@@H](C)[C@@H](O)[C@@H](C)[C@H](OC(C)=O)[C@@H]1C [amorph, Rifaximin] | 
